This note sets out measurements from US9023789B2, “Amylin analogs and pharmaceutical compositions thereof” (Novo Nordisk A/S, priority 2012, dated 2015).

Numbered stars: 1 amine (or outer) side, 2 acyl side, 3 side chain; on linkers, the order of the positions; unused ones are H or OH. Bridge positions count the residues as written; N and C are the ends. Side chains are listed from the residue outwards. Peptide text beside a SMILES is read from it. * marks the point of attachment. C20 diacid = O=C(O)CCCCCCCCCCCCCCCCCCC(=O)*; γGlu = O=C(O)[C@H](CCC(=O)[*:2])N[*:1]; AEEA = NCCOCCOCC(=O)O

The target in assay [1] is T1, human amylin 3(a) receptor (human calcitonin receptor + RAMP-3) in BHK570 cells (Homo sapiens, UniProt O60896+P30988).
T1 construct: expressed in transfected cells
The assay is described as follows: ASSAY (II)a functional assay, human amylin receptor (CRE luciferase). The format is cell-based. The gist of the method: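 Readout is luminescence from a cAMP-responsive CRE-luc reporter, developed with LucLite for 30 min at room temperature. Cells were treated for 3 h at 37 °C in 10% FBS/DMEM buffered with 10 mM Hepes (pH 7.4).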

The target in assay [2] is T2, rat calcitonin receptor (Rattus norvegicus, UniProt P32214).
T2 construct: expressed in transfected cells; host or cells: BHK tk'ts 13 (transient, FuGENE 6), membranes
T2 sequence (P32214 25-479 isoform P32214-2 limits assumed): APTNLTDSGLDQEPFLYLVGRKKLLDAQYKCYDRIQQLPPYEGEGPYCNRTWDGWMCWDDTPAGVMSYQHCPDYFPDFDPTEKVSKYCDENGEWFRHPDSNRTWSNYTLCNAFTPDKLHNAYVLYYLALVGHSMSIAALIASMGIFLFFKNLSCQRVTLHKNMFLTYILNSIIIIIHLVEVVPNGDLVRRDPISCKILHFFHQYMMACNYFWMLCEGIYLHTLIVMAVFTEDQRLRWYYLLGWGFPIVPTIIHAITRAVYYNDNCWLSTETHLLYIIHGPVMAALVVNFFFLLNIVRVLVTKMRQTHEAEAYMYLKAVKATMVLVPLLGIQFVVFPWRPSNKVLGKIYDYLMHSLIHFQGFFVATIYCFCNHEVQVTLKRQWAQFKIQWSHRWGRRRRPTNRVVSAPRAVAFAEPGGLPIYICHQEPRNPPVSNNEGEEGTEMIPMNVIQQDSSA
Put plainly: ASSAY (VIII) binding to the rat calcitonin receptor. Particulars: Table 7, read-out: rCTR bind IC50. In short, it runs like this:
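Cell membranes for binding came from BHK tk′ts 13 cells harvested approximately 48 hours after transient transfection with the rat receptor.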

For assay [3], the target named is T3, human amylin receptor (membranes from Amylin 3(a)/CRE-luc cells) (Homo sapiens, UniProt O60896+P30988).
T3 construct: expressed in transfected cells
T3 sequence (P30988 25-474): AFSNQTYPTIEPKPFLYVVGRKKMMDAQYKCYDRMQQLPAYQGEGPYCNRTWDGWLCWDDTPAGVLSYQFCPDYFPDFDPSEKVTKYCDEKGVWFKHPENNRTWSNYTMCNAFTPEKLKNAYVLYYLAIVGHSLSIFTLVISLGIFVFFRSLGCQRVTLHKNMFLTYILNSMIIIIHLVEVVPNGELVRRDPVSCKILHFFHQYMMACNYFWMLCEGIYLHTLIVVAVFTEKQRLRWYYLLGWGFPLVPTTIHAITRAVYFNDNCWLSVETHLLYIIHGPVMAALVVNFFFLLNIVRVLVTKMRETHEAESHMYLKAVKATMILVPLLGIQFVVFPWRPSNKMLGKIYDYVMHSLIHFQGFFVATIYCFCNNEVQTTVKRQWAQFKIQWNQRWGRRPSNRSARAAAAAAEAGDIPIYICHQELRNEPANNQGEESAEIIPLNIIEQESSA
T3 sequence (O60896 24-148 partner): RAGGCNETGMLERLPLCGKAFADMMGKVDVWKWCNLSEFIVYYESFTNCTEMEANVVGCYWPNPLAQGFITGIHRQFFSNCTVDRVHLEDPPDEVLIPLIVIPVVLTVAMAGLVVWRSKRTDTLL
Put plainly: ASSAY (V) binding to the human amylin receptor (SPA, 125I-rat amylin).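 Further: competition binding of cell membranes (35 ng/µL) mixed with SPA beads in 384-well plates at 40 µL total volume, read by scintillation counting.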

The mark [4] stands for this setting: hCTR funct. EC50 / hAmylin-R funct. EC50.
Where [5] appears, read: hCTR funct. EC50 divided by hAmylin-R funct. EC50.
The mark [6] stands for this setting: hCTR funct. EC50 over hAmylin-R funct. EC50.
Where [7] appears, read: human functional selectivity: hCTR funct. EC50 / hAmylin-R funct. EC50.
Where [8] appears, read: Table 5, selectivity, hCTR bind IC50 / hAmylin-R bind IC50.
[9] abbreviates: Table 5a, selectivity, hCTR bind IC50 / hAmylin-R bind IC50.
The mark [10] stands for this setting: Table 7, human binding selectivity, included for comparison.
Where [11] appears, read: Table 7a (preferred compounds), human binding selectivity, included for comparison.
Where [12] appears, read: ratio of human calcitonin receptor binding IC50 to human amylin receptor binding IC50.
Setting [13] is: Table 5b, selectivity, hCTR bind IC50 / hAmylin-R bind IC50.
Where [14] appears, read: Table 5c, selectivity, hCTR bind IC50 / hAmylin-R bind IC50.

By IC50 is commonly meant the concentration that gives 50% inhibition. Regarding `CC[C@H](C)[C@H](NC(=O)[C@H](C)NC(=O)CNC(=O)[C@H](Cc1ccccc1)NC(=O)[C@H](CC(N)=O)NC(=O)[C@@H]1CCCN1C(=O)[C@H](CO)NC(=O)[C@H](CO)NC(=O)[C@H](Cc1c[nH]cn1)NC(=O)[C@H](CCCNC(=N)N)NC(=O)[C@H](CC(C)C)NC(=O)[C@H](Cc1ccccc1)NC(=O)[C@H](CCC(=O)O)NC(=O)[C@H](C)NC(=O)[C@H](CC(C)C)NC(=O)[C@H](CCCNC(=N)N)NC(=O)[C@H](CCC(N)=O)NC(=O)[C@@H](NC(=O)[C@H](C)NC(=O)[C@@H]1CSSC[C@H](NC(=O)[C@H](CCCCN)NC(=O)CC[C@H](NC(=O)CCCCCCCCCCCCCCCCCCC(=O)O)C(=O)O)C(=O)N[C@@H](CC(N)=O)C(=O)N[C@@H]([C@@H](C)O)C(=O)N[C@@H](C)C(=O)N[C@@H]([C@@H](C)O)C(=O)N1)[C@@H](C)O)C(=O)N1CCC[C@H]1C(=O)N[C@@H](CO)C(=O)N[C@@H](CO)C(=O)N[C@H](C(=O)N[C@@H](CC(N)=O)C(=O)N[C@H](C(=O)NCC(=O)N[C@@H](CO)C(=O)N[C@@H](CCC(=O)O)C(=O)N[C@H](C(=O)N[C@@H](Cc1ccc(O)cc1)C(N)=O)[C@@H](C)O)C(C)C)[C@@H](C)O` [Example 22] ({C20 diacid-γGlu}-KCNTATCATQRLAEFLRHSSPNFGAIPSSTNVGSETY-NH2; disulfide 2-7), the “Ratio hCT/hAmylin funct.” value in assay [1] (setting [4]), in assay [1] (setting [5]), in assay [1] (setting [6]) and in assay [1] (setting [7]) was 3.8 each time. Moreover, the IC50 in assay [2] was found to be 62.5 nM. Besides, the “Ratio hCT/hAmylin binding” value in assay [3] (setting [8]), in assay [3] (setting [9]), in assay [3] (setting [10]), in assay [3] (setting [11]) and in assay [3] (setting [12]) was 12.3 throughout.

Take `CC[C@H](C)[C@H](NC(=O)[C@H](C)NC(=O)CNC(=O)[C@H](Cc1ccccc1)NC(=O)[C@H](CC(N)=O)NC(=O)[C@@H]1CCCN1C(=O)[C@H](CO)NC(=O)[C@H](CO)NC(=O)[C@H](Cc1c[nH]cn1)NC(=O)[C@H](CCCNC(=N)N)NC(=O)[C@H](CC(C)C)NC(=O)[C@H](Cc1ccccc1)NC(=O)[C@H](Cc1c[nH]cn1)NC(=O)[C@H](C)NC(=O)[C@H](CC(C)C)NC(=O)[C@H](CCCNC(=N)N)NC(=O)[C@H](CCC(N)=O)NC(=O)[C@@H](NC(=O)[C@H](C)NC(=O)[C@@H]1CSSC[C@H](NC(=O)[C@H](CCCNC(=N)N)NC(=O)CNC(=O)CC[C@H](NC(=O)CCCCCCCCCCCCCCCCCCC(=O)O)C(=O)O)C(=O)N[C@@H](CC(N)=O)C(=O)N[C@@H]([C@@H](C)O)C(=O)N[C@@H](C)C(=O)N[C@@H]([C@@H](C)O)C(=O)N1)[C@@H](C)O)C(=O)N1CCC[C@H]1C(=O)N[C@@H](CO)C(=O)N[C@@H](CO)C(=O)N[C@H](C(=O)N[C@@H](CC(N)=O)C(=O)N[C@H](C(=O)NCC(=O)N1CCC[C@H]1C(=O)N[C@@H](CC(N)=O)C(=O)N[C@H](C(=O)N[C@@H](Cc1ccc(O)cc1)C(N)=O)[C@@H](C)O)C(C)C)[C@@H](C)O` [Example 102] ({C20 diacid-γGlu}-GRCNTATCATQRLAHFLRHSSPNFGAIPSSTNVGPNTY-NH2; disulfide 3-8 (inferred)): the “Ratio hCT/hAmylin funct.” value in assay [1] (setting [4]), in assay [1] (setting [5]), in assay [1] (setting [6]) and in assay [1] (setting [7]) was 2.9 in each case. Moreover, the IC50 in assay [2] worked out at 65.9 nM. Besides, the “Ratio hCT/hAmylin binding” value in assay [3] (setting [8]), in assay [3] (setting [9]), in assay [3] (setting [13]), in assay [3] (setting [14]), in assay [3] (setting [10]) and in assay [3] (setting [11]) was 36.2 throughout. The “Ratio hCT/hAmylin binding” value in assay [3] (setting [12]) came to 36.2.

With `CC[C@H](C)[C@H](NC(=O)[C@H](C)NC(=O)CNC(=O)[C@H](Cc1ccccc1)NC(=O)[C@H](CC(N)=O)NC(=O)[C@@H]1CCCN1C(=O)[C@H](CO)NC(=O)[C@H](CO)NC(=O)[C@H](Cc1c[nH]cn1)NC(=O)[C@H](CCCNC(=N)N)NC(=O)[C@H](CC(C)C)NC(=O)[C@H](Cc1ccccc1)NC(=O)[C@H](CCC(=O)O)NC(=O)[C@H](C)NC(=O)[C@H](CC(C)C)NC(=O)[C@H](CCCNC(=N)N)NC(=O)[C@H](CCC(N)=O)NC(=O)[C@@H](NC(=O)[C@H](C)NC(=O)[C@@H]1CSSC[C@H](NC(=O)[C@@H](N)CCCCNC(=O)CC[C@H](NC(=O)CC[C@H](NC(=O)CCCCCCCCCCCCCCCCCCC(=O)O)C(=O)O)C(=O)O)C(=O)N[C@@H](CC(N)=O)C(=O)N[C@@H]([C@@H](C)O)C(=O)N[C@@H](C)C(=O)N[C@@H]([C@@H](C)O)C(=O)N1)[C@@H](C)O)C(=O)N1CCC[C@H]1C(=O)N[C@@H](CO)C(=O)N[C@@H](CO)C(=O)N[C@H](C(=O)N[C@@H](CC(N)=O)C(=O)N[C@H](C(=O)NCC(=O)N[C@@H](CCCNC(=N)N)C(=O)N[C@@H](CC(N)=O)C(=O)N[C@H](C(=O)N[C@@H](Cc1ccc(O)cc1)C(N)=O)[C@@H](C)O)C(C)C)[C@@H](C)O` [Example 88] (H-K([γGlu-γGlu-C20 diacid])CNTATCATQRLAEFLRHSSPNFGAIPSSTNVGRNTY-NH2; disulfide 2-7), the “Ratio hCT/hAmylin funct.” value in assay [1] (setting [5]), in assay [1] (setting [6]) and in assay [1] (setting [7]) was 8.5 throughout. Moreover, the IC50 in assay [2] was determined as 196 nM. For the same molecule, the “Ratio hCT/hAmylin binding” value in assay [3] (setting [8]), in assay [3] (setting [9]), in assay [3] (setting [13]), in assay [3] (setting [14]), in assay [3] (setting [10]) and in assay [3] (setting [11]) was 46.5 in each case. Moreover, the “Ratio hCT/hAmylin binding” value in assay [3] (setting [12]) amounted to 46.5.

For orientation: EC50 means the midpoint of the concentration-response curve. Turning to `CC[C@H](C)[C@H](NC(=O)[C@H](C)NC(=O)CNC(=O)[C@H](Cc1ccccc1)NC(=O)[C@H](CC(N)=O)NC(=O)[C@@H]1CCCN1C(=O)[C@H](CO)NC(=O)[C@H](CO)NC(=O)[C@H](Cc1c[nH]cn1)NC(=O)[C@H](CCCNC(=N)N)NC(=O)[C@H](CC(C)C)NC(=O)[C@H](Cc1ccccc1)NC(=O)[C@H](CC(N)=O)NC(=O)[C@H](C)NC(=O)[C@H](CC(C)C)NC(=O)[C@H](CCCNC(=N)N)NC(=O)[C@H](CCC(N)=O)NC(=O)[C@@H](NC(=O)[C@H](C)NC(=O)[C@@H]1CSSC[C@H](NC(=O)[C@@H](N)CCCCNC(=O)COCCOCCNC(=O)CC[C@H](NC(=O)CCCCCCCCCCCCCCCCCCC(=O)O)C(=O)O)C(=O)N[C@@H](CC(N)=O)C(=O)N[C@@H]([C@@H](C)O)C(=O)N[C@@H](C)C(=O)N[C@@H]([C@@H](C)O)C(=O)N1)[C@@H](C)O)C(=O)N1CCC[C@H]1C(=O)N[C@@H](CO)C(=O)N[C@@H](CO)C(=O)N[C@H](C(=O)N[C@@H](CC(N)=O)C(=O)N[C@H](C(=O)NCC(=O)N[C@@H](CO)C(=O)N[C@@H](CCC(=O)O)C(=O)N[C@H](C(=O)N[C@@H](Cc1ccc(O)cc1)C(N)=O)[C@@H](C)O)C(C)C)[C@@H](C)O` [Example 26] (H-K([AEEA-γGlu-C20 diacid])CNTATCATQRLANFLRHSSPNFGAIPSSTNVGSETY-NH2; disulfide 2-7; N-terminus assumed), the “Ratio hCT/hAmylin funct.” value in assay [1] (setting [5]), in assay [1] (setting [6]) and in assay [1] (setting [7]) was 29.9 throughout. In addition, the EC50 in assay [1] (human amylin receptor functional potency, assay (II), read-out: hAmylin-R funct. EC50) stood at 0.212 nM. Also, the IC50 turned out to be 152 nM in assay [2] and 0.532 nM in assay [3] (Table 4, read-out: hAmylin-R bind IC50). Further, the “Ratio hCT/hAmylin binding” value in assay [3] (setting [8]), in assay [3] (setting [9]), in assay [3] (setting [13]), in assay [3] (setting [14]), in assay [3] (setting [10]) and in assay [3] (setting [11]) was 47.5 in each case. Besides, the “Ratio hCT/hAmylin binding” value in assay [3] (setting [12]) is given as 47.5.
